# In patent publication US10093660B2, “Sulfoximine substituted quinazolines for pharmaceutical compositions” (EVOTEC INTERNATIONAL GMBH, priority 2013, dated 2018):
# Target: MNK2a (Homo sapiens (Human), UniProt Q9HBH9)
# Experiment: MNK2a in vitro kinase assay (Assay 2), ADP-Glo
# Assay type: biochemical
# Conditions: not given
# Text: B. MNK2a In Vitro Kinase Assay (Assay 2)
# MNK2a, sequence (Q9HBH9 whole entry): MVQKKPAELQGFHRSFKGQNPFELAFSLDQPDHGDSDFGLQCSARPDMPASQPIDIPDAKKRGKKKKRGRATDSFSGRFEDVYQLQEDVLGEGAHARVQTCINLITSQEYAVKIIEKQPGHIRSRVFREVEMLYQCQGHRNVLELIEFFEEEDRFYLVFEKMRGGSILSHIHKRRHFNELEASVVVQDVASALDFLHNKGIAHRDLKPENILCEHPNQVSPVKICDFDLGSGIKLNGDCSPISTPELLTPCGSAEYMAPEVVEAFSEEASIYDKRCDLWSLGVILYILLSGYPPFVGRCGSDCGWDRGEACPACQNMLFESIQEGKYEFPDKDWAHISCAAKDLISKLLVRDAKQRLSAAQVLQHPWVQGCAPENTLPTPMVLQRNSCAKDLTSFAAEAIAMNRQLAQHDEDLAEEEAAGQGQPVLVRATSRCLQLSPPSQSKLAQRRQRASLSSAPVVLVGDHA
row,IC50,SMILES
1,0.004 µM,CO[C@@H]1COC[C@@H]1Oc1cc(F)ccc1Nc1ncnc2cc(N=S(C)(C)=O)cc(C)c12 (racemic) [Example 2.9]

# Same assay, conditions: assay 2; read-out: MNK2 IC50
row,SMILES,IC50
1,CO[C@H]1COC[C@H]1Oc1ncccc1Nc1ncnc2cc(N=S3(=O)CCCC3)cc(C)c12 (racemic) [Example 2.2],0.006 µM
2,Cc1cc(N=S(C)(C)=O)cc2ncnc(Nc3cccnc3O[C@H]3COC[C@H]3OCCF)c12 (racemic) [Example 2.26],0.003 µM
3,O=S1(=Nc2cc(F)c3c(Nc4ccc(F)cc4O[C@@H]4COC[C@@H]4O)ncnc3c2)CCC1 (racemic) [Example 2.87],0.01 µM
4,CS(=O)(=Nc1cc(F)c2c(Nc3ccc(F)cc3O[C@@H]3COC[C@@H]3O)ncnc2c1)c1cccnc1 (mixture of isomers) [Example 2.89],0.051 µM
5,CC(C)S(C)(=O)=Nc1cc(F)c2c(Nc3ccc(F)cc3O[C@@H]3COC[C@@H]3O)ncnc2c1 (mixture of isomers) [Example 2.90],0.07 µM
6,CS(=O)(=Nc1cc(F)c2c(Nc3ccc(F)cc3O[C@@H]3COC[C@@H]3O)ncnc2c1)C1CC1 (mixture of isomers) [Example 2.91],0.106 µM
7,O=S1(=Nc2cc(F)c3c(Nc4ccc(F)cc4O[C@@H]4COC[C@@H]4O)ncnc3c2)CCC(O)CC1 (mixture of isomers) [Example 2.94],0.039 µM
8,CS(=O)(=Nc1cc(F)c2c(Nc3ccc(F)cc3O[C@@H]3COC[C@@H]3O)ncnc2c1)c1ccccc1 (mixture of isomers) [Example 2.95],0.054 µM
9,CC1CCS(=O)(=Nc2cc(F)c3c(Nc4ccc(F)cc4O[C@@H]4COC[C@@H]4O)ncnc3c2)C1 (mixture of isomers) [Example 2.96],0.009 µM
10,Cc1cc(N=S(C)(C)=O)cc2ncnc(Nc3ccc(F)cc3O[C@@H]3C[C@@H]4CC[C@H]3O4)c12 (racemic) [Example 2.98],0.006 µM
11,Cc1cc(N=S(C)(C)=O)cc2ncnc(Nc3ccc(F)cc3O[C@H]3C[C@@H]4CO[C@H]3C4)c12 (racemic) [Example 2.99],0.003 µM
12,Cc1cc(N=S(C)(C)=O)cc2ncnc(Nc3ccc(F)cc3O[C@@H]3COC[C@H]3F)c12 (racemic) [Example 2.100],0.025 µM
13,Cc1cc(N=S2(=O)CCCC2)cc2ncnc(Nc3ccc(F)cc3O[C@@H]3COC[C@H]3F)c12 (racemic) [Example 2.101],0.006 µM
14,CS(C)(=O)=Nc1cc(Cl)c2c(Nc3ccc(F)cc3O[C@H]3COC[C@@H]3O)ncnc2c1 [Example 1.8],0.002 µM
15,CS(C)(=O)=Nc1cc(C2CC2)c2c(Nc3ccc(F)cc3O[C@H]3COC[C@@H]3O)ncnc2c1 [Example 1.10],0.021 µM
16,Cc1cc(N=S2(=O)CCCC2)cc2ncnc(Nc3ccc(F)cc3O[C@H]3CN(C)C[C@@H]3O)c12 [Example 2.61],0.012 µM
17,CS(=O)(=Nc1cc(F)c2c(Nc3ccc(F)cc3O[C@H]3COC[C@@H]3O)ncnc2c1)c1cccnc1 (stereo partly shown) [Example 2.69],0.022 µM
18,CS(=O)(=Nc1cc(F)c2c(Nc3ccc(F)cc3O[C@H]3COC[C@@H]3O)ncnc2c1)C1CC1 (stereo partly shown) [Example 2.73],0.02 µM
19,CS(=O)(=Nc1cc(F)c2c(Nc3ccc(F)cc3O[C@H]3COC[C@@H]3O)ncnc2c1)c1ccccc1 (stereo partly shown) [Example 2.86],0.013 µM
20,CS(=O)(=Nc1cc(F)c2c(Nc3ccc(F)cc3O[C@H]3COC[C@@H]3O)ncnc2c1)C1CCOCC1 (stereo partly shown) [Example 2.88],0.032 µM
21,CS(=O)(=Nc1cc(F)c2c(Nc3ccc(F)cc3O[C@H]3COC[C@@H]3O)ncnc2c1)c1ccncc1 (stereo partly shown) [Example 2.97],0.071 µM

# Results, then the compound that gave them:
row,IC50,SMILES
1,0.026 µM,COc1cc(N=S2(=O)CCC(O)CC2)cc2ncnc(Nc3ccc(F)cc3O[C@H]3COC[C@H]3O)c12 (mixture of isomers) [Example 9.25]
2,0.086 µM,COc1cc(N=S(C)(=O)c2ccncc2)cc2ncnc(Nc3ccc(F)cc3O[C@H]3COC[C@H]3O)c12 (mixture of isomers) [Example 9.27]
3,0.001 µM,COc1cc(N=S2(=O)CCC2)cc2ncnc(Nc3ccc(Cl)nc3O[C@H]3COC[C@@H]3O)c12 [Example 9.5]
4,0.015 µM,COc1cc(N=S(C)(=O)C2CCOCC2)cc2ncnc(Nc3ccc(F)cc3O[C@H]3COC[C@@H]3O)c12 (stereo partly shown) [Example 9.11]
5,0.018 µM,COc1cc(N=S(C)(=O)C2CC2)cc2ncnc(Nc3ccc(F)cc3O[C@H]3COC[C@@H]3O)c12 (stereo partly shown) [Example 9.22]
6,0.007 µM,COc1cc(N=S2(=O)CCC(O)CC2)cc2ncnc(Nc3ccc(F)cc3O[C@H]3COC[C@@H]3O)c12 (stereo partly shown) [Example 9.26]
7,0.013 µM,COc1cc(N=S(C)(=O)c2ccccc2)cc2ncnc(Nc3ccc(F)cc3O[C@H]3COC[C@@H]3O)c12 (stereo partly shown) [Example 9.28]
8,0.043 µM,COc1cc(N=S(C)(=O)c2ccncc2)cc2ncnc(Nc3ccc(F)cc3O[C@H]3COC[C@@H]3O)c12 (stereo partly shown) [Example 9.30]
9,0.003 µM,Cc1cc(N=S2(=O)CCC2)cc2ncnc(Nc3ccc(F)cc3OC3CCC(O)OC3)c12 (stereo not shown) [Example 12.1]
10,0.003 µM,Cc1cc(N=S(C)(C)=O)cc2ncnc(Nc3ccc(F)cc3OC3CCC(O)OC3)c12 (stereo not shown) [Example 12.2]
11,0.007 µM,CO[C@H]1COC[C@H]1Oc1cc(F)ccc1Nc1ncnc2cc(N=S(C)(C)=O)cc(C)c12 [Example 14.7]

# Target: MNK1a (Homo sapiens (Human), UniProt Q9BUB5)
# Experiment: MNK1 in vitro kinase assay (Assay 3), Z'-LYTE
# Assay type: biochemical
# Conditions: not given
# Text: C. MNK1 In Vitro Kinase Assay (Assay 3)
# MNK1 Data can be obtained from the MNK1 Z′-LYTE® assay. The MNK1 Z′-LYTE® screening protocol and assay conditions are also described on www.invitrogen.com.
# The assay is described as follows:
# The Z′-LYTE® biochemical assay employs a fluorescence-based, coupled-enzyme format and is based on the differential sensitivity of phosphorylated and non-phosphorylated peptides to proteolytic cleavage. The peptide substrate is labeled with two fluorophores—one at each end—that make up a FRET pair.
# In the primary reaction, the kinase transfers the gamma-phosphate of ATP to a single tyrosine, serine or threonine residue in a synthetic FRET-peptide. In the secondary reaction, a site-specific protease recognizes and cleaves non-phosphorylated FRET-peptides. Phosphorylation of FRET-peptides suppresses cleavage by the Development Reagent. Cleavage disrupts FRET between the donor (i.e., coumarin) and acceptor (i.e., fluorescein) fluorophores on the FRET-peptide, whereas uncleaved, phosphorylated FRET-peptides maintain FRET. A ratiometric method, which calculates the ratio (the Emission Ratio) of donor emission to acceptor emission after excitation of the donor fluorophore at 400 nm, is used to quantitate reaction progress, as shown in the equation below.
# The 2×MKNK1 (MNK1) mixture is prepared in 50 mM HEPES pH 7.5, 0.01% BRIJ-35, 10 mM MgCl2, 4 mM MnCl2, 1 mM EGTA, 2 mM DTT.
# The Test Compounds are screened in 1% DMSO (final) in the well.
# All Peptide/Kinase Mixtures are diluted to a 2× working concentration in the MNK1 Kinase Buffer.
# All ATP Solutions are diluted to a 4× working concentration in Kinase Buffer (50 mM HEPES pH 7.5, 0.01% BRIJ-35, 10 mM MgCl2, 1 mM EGTA).
# Development Reagent Solution:
# The Development Reagent is diluted in Development Buffer
# 1. 2.5 μL—4× Test Compound
# 2. 5 μL—2× Peptide/Kinase Mixture
# 5. 60-minute Kinase Reaction incubation at room temperature
# 6. 5 μL—Development Reagent Solution
# 8. 60-minute Development Reaction incubation at room temperature
# 9. Read on fluorescence plate reader and analyze the data
# Control C0%=Average Coumarin emission signal of the 0% Phos. Control F100%=Average Fluorescein emission signal of the 100% Phos. Control F0%=Average Fluorescein emission signal of the 0% Phos. Control Graphing Software
# SelectScreen® Kinase Profiling Service uses XLfit from IDBS. […] The activity of MNK proteins can be assayed also by other in vitro kinase assay formats. […] In general, MNK kinase assays can be performed such that a MNK substrate such as a protein or a peptide, which may or may not include modifications as further described below, or others are phosphorylated by MNK proteins having enzymatic activity in vitro. The activity of a candidate agent can then be determined via its ability to decrease the enzymatic activity of the MNK protein. The kinase activity may be detected by change of the chemical, physical or immunological properties of the substrate due to phosphorylation.
# MNK1a, sequence (Q9BUB5 other isoform, or with tags, fused parts or gaps): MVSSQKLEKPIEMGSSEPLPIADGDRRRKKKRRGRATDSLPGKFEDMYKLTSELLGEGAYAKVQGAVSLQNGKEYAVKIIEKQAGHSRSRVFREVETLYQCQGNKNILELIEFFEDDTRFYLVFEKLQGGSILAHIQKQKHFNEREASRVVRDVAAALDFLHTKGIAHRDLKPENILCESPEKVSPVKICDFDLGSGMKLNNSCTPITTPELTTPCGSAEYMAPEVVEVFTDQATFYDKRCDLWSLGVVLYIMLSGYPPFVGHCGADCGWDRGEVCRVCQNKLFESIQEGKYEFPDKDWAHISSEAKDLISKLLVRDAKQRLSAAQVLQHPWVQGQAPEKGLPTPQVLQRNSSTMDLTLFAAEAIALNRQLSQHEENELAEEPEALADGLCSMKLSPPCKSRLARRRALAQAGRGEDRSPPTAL
row,IC50,SMILES
1,0.045 µM,CO[C@@H]1COC[C@@H]1Oc1cc(F)ccc1Nc1ncnc2cc(N=S3(=O)CCCC3)cc(Cl)c12 (racemic) [Example 1.6]

# Same assay, conditions: compound concentration of 1 μM, read-out: MNK1 % INH
row,SMILES,inhibition at 1 µM
1,CO[C@H]1COC[C@H]1Oc1ncccc1Nc1ncnc2cc(N=S(C)(C)=O)cc(C)c12 (racemic) [Example 2.1],88%
2,Cc1cc(N=S2(=O)CCCC2)cc2ncnc(Nc3cccnc3O[C@@H]3COC[C@@H]3O)c12 (racemic) [Example 2.3],102%
3,Cc1cc(N=S(C)(C)=O)cc2ncnc(Nc3ccc(F)cc3O[C@H]3COC[C@H]3O)c12 (racemic) [Example 2.7],97%
4,O=S1(=Nc2cc(F)c3c(Nc4cccnc4O[C@H]4COC[C@H]4O)ncnc3c2)CCCC1 (racemic) [Example 2.30],97%
5,Cc1cc(N=S2(=O)CCCCC2)cc2ncnc(Nc3cccnc3O[C@H]3COC[C@H]3O)c12 (racemic) [Example 2.31],94%
6,Cc1cc(N=S2(=O)CCC2)cc2ncnc(Nc3cccnc3O[C@H]3COC[C@H]3O)c12 (racemic) [Example 2.32],97%
7,O=S1(=Nc2cc(F)c3c(Nc4cccnc4O[C@H]4COC[C@H]4O)ncnc3c2)CCC1 (racemic) [Example 2.33],91%
8,CO[C@@H]1COC[C@H]1Oc1ncccc1Nc1ncnc2cc(N=S(C)(C)=O)cc(C)c12 (racemic) [Example 2.34],70%
9,CO[C@@H]1COC[C@H]1Oc1ncccc1Nc1ncnc2cc(N=S3(=O)CCC3)cc(C)c12 (racemic) [Example 2.35],97%
10,CO[C@@H]1CC[C@@H](Oc2cc(F)ccc2Nc2ncnc3cc(N=S(C)(C)=O)cc(C)c23)CO1 (racemic) [Example 2.63],102%
11,Cc1cc(N=S2(=O)CCC2)cc2ncnc(Nc3ccc(F)cc3O[C@@H]3COC[C@@H]3O)c12 (racemic) [Example 2.67],100%
12,Cc1cc(N=S(C)(=O)C2CC2)cc2ncnc(Nc3ccc(F)cc3O[C@@H]3COC[C@@H]3O)c12 (mixture of isomers) [Example 2.72],98%
13,"Cc1cc(N=S2(=O)CCC2)cc2ncnc(Nc3ccc(F)cc3O[C@@H]3COC[C@@H]3O)c12 (single isomer, unassigned) [Example 1.36]",98%
14,"Cc1cc(N=S2(=O)CCC2)cc2ncnc(Nc3ccc(F)cc3O[C@H]3COC[C@H]3O)c12 (single isomer, unassigned) [Example 1.37]",97%
15,Cc1cc(N=S2(=O)CCCC2)cc2ncnc(Nc3cccnc3O[C@H]3COC[C@@H]3O)c12 [Example 2.24],99%
16,Cc1cc(N=S(C)(C)=O)cc2ncnc(Nc3ccc(F)cc3O[C@H]3COC[C@@H]3O)c12 [Example 2.27],97%

# Now from value to compound:
row,inhibition at 1 µM,SMILES
1,100%,"Cc1cc(N=S2(=O)CCCC2)cc2ncnc(Nc3cccnc3O[C@@H]3COC[C@@H]3O)c12 (single isomer, unassigned) [Example 14.3]"
2,103%,"Cc1cc(N=S2(=O)CCCC2)cc2ncnc(Nc3cccnc3O[C@H]3COC[C@H]3O)c12 (single isomer, unassigned) [Example 14.4]"
